In US20230147942A1, “PHARMACEUTICAL COMPOSITION COMPRISING NEW LACTOBACILLUS PLANTARUM KC3 STRAIN AND LEONURUS JAPONICUS EXTRACT AS ACTIVE INGREDIENTS FOR PREVENTING OR TREATING RESPIRATORY DISEASE AND USE THEREOF” (KT&G CORPORATION, priority 2020, published 2023):
Where a SMILES comes first, the peptide text is derived from it. Bridges are numbered along the chain shown (N, C = ends). [ ]: non-standard residue; d: D form. The star is where a group is joined. Ileψ(thiazoline)Cys = CC[C@H](C)[C@H](N)C1=N[C@H](C(=O)*)CS1; dOrn = NCCC[C@@H](N)C(=O)O

tested on: Lactobacillus plantarum KC3; experiment: Antibiotic susceptibility of strain (antibiotic strips on LSM solid medium); type: cell-based; conditions: 37° C., 24 hours
Protocol: In order to confirm antibiotics resistance level of the new lactic acid bacteria from the of the Lactobacillus plantarum KC3 the present disclosure, an experiment was performed as follows by applying the method described in the document
To measure the antibiotics resistance level of the strain, an MIC test was carried out. Lactic acid bacteria that were inoculated into an MRS medium (DF0881-17-5, Difco) and cultured at 37° C. for 18 hours were spread on an LSM solid medium (90% iso-sensitest broth (CM0473, Oxoid), 10% MRS medium (DF0881-17-5, Difco), and 1.5% agar (214010, Difco)). Strips for each type of antibiotics, such as Amikacin (92018, Liofilchem srl), Gentamycin (92009, Liofilchem srl), Kanamycin (92034, Liofilchem srl), Streptomycin (92112, Liofilchem srl), Penicillin-G (92102, Liofilchem srl), Oxacillin (92015, Liofilchem srl), Ampicillin (920030, Liofilchem srl), Bacitracin (92019, Liofilchem srl), Rifampicin (92001, Liofilchem srl), Polymyxin B (92004, Liofilchem srl), Chloramphenico 1(92075, Liofilchem srl), Vancomycin (92057, Liofilchem srl), and the like, were put on the medium, and the bacteria were grown at 37° C. for 24 hours.
In Table 4, R indicates resistance and represents that the size of an inhibition zone is about 0 mm; IS indicates mediate resistance and represents that the size of an inhibition zone is in a range of about 1 mm to about 5 mm; and S indicates susceptibility and represents that the size of an inhibition zone is greater than about 5 mm.

Row | Compound | Antibiotic resistance (class) | Antibiotic resistance, size of inhibition zone [mm]
1 | NCC[C@H](O)C(=O)N[C@@H]1C[C@H](N)[C@@H](O[C@H]2O[C@H](CN)[C@@H](O)[C@H](O)[C@H]2O)[C@H](O)[C@H]1O[C@H]1O[C@H](CO)[C@@H](O)[C@H](N)[C@H]1O [Amikacin] | IS (IS indicates mediate resistance and represents that the size of an inhibition zone is in a range of about 1 mm to about 5 mm) | 1
2 | CC1(C)S[C@@H]2[C@H](NC(=O)[C@H](N)c3ccccc3)C(=O)N2[C@H]1C(=O)O [Ampicillin] | S (S indicates susceptibility and represents that the size of an inhibition zone is greater than about 5 mm) | 14
3 | CC[C@H](C)[C@H](N)C1=N[C@H](C(=O)N[C@@H](CC(C)C)C(=O)N[C@H](CCC(=O)O)C(=O)N[C@H](C(=O)N[C@H]2CCCCNC(=O)[C@H](CC(N)=O)NC(=O)[C@@H](CC(=O)O)NC(=O)[C@H](Cc3cnc[nH]3)NC(=O)[C@@H](Cc3ccccc3)NC(=O)[C@H]([C@@H](C)CC)NC(=O)[C@@H](CCCN)NC2=O)[C@@H](C)CC)CS1 [Bacitracin] ({Ileψ(thiazoline)Cys}-L[dE]IK[dOrn]I[dF]H[dD]N; lactam 4-C) | S (S indicates susceptibility and represents that the size of an inhibition zone is greater than about 5 mm) | 7
4 | O=C(N[C@H](CO)[C@H](O)c1ccc([N+](=O)[O-])cc1)C(Cl)Cl [Chloramphenicol] | S (S indicates susceptibility and represents that the size of an inhibition zone is greater than about 5 mm) | 10
5 | NC[C@H]1O[C@H](O[C@H]2[C@H](O)[C@@H](O[C@H]3O[C@H](CO)[C@@H](O)[C@H](N)[C@H]3O)[C@H](N)C[C@@H]2N)[C@H](O)[C@@H](O)[C@@H]1O [Kanamycin] | R (R indicates resistance and represents that the size of an inhibition zone is about 0 mm) | 0
6 | CCC[C@@H]1C[C@@H](C(=O)N[C@@H]([C@H]2O[C@H](SC)[C@H](O)[C@@H](O)[C@H]2O)[C@@H](C)O)N(C)C1 [Lincomycin] | S (S indicates susceptibility and represents that the size of an inhibition zone is greater than about 5 mm) | 10
7 | CO[C@@H]1[C@@H](OC(N)=O)[C@@H](O)[C@H](Oc2ccc3c(O)c(NC(=O)c4ccc(O)c(CC=C(C)C)c4)c(=O)oc3c2C)OC1(C)C [Novabiocin] | S (S indicates susceptibility and represents that the size of an inhibition zone is greater than about 5 mm) | 7
8 | Cc1onc(-c2ccccc2)c1C(=O)N[C@@H]1C(=O)N2[C@@H]1SC(C)(C)[C@@H]2C(=O)O [Oxacillin] | IS (IS indicates mediate resistance and represents that the size of an inhibition zone is in a range of about 1 mm to about 5 mm) | 2
9 | CC1(C)S[C@@H]2[C@H](NC(=O)Cc3ccccc3)C(=O)N2[C@H]1C(=O)O [Penicillin-G] | IS (IS indicates mediate resistance and represents that the size of an inhibition zone is in a range of about 1 mm to about 5 mm) | 5
10 | CO[C@H]1/C=C/O[C@@]2(C)Oc3c(C)c(O)c4c(O)c(c(/C=N/N5CCN(C)CC5)c(O)c4c3C2=O)NC(=O)/C(C)=C\C=C\[C@H](C)[C@H](O)[C@@H](C)[C@@H](O)[C@@H](C)[C@H](OC(C)=O)[C@@H]1C [Rifampicin] | S (S indicates susceptibility and represents that the size of an inhibition zone is greater than about 5 mm) | 7
11 | [H]/N=C(/N)N[C@H]1[C@H](O)[C@@H](O)[C@H](O[C@@H]2O[C@@H](C)[C@](O)(C=O)[C@H]2O[C@@H]2O[C@@H](CO)[C@H](O)[C@@H](O)[C@@H]2NC)[C@@H](N/C(N)=N\[H])[C@@H]1O [Streptomycin] | R (R indicates resistance and represents that the size of an inhibition zone is about 0 mm) | 0
12 | CN[C@H](CC(C)C)C(=O)N[C@H]1C(=O)N[C@@H](CC(N)=O)C(=O)N[C@H]2C(=O)N[C@H]3C(=O)N[C@H](C(=O)N[C@H](C(=O)O)c4cc(O)cc(O)c4-c4cc3ccc4O)[C@H](O)c3ccc(c(Cl)c3)Oc3cc2cc(c3O[C@@H]2O[C@H](CO)[C@@H](O)[C@H](O)[C@H]2O[C@H]2C[C@](C)(N)[C@H](O)[C@H](C)O2)Oc2ccc(cc2Cl)[C@H]1O [Vancomycin] | R (R indicates resistance and represents that the size of an inhibition zone is about 0 mm) | 0
13 | Gentamycin | IS (IS indicates mediate resistance and represents that the size of an inhibition zone is in a range of about 1 mm to about 5 mm) | 3
14 | Neomycin | IS (IS indicates mediate resistance and represents that the size of an inhibition zone is in a range of about 1 mm to about 5 mm) | 3
15 | Polymyxin B | R (R indicates resistance and represents that the size of an inhibition zone is about 0 mm) | 0
